From US4321274A, “Substituted 1-(cinnamylideneamino)-3-benzyli-deneaminoguanidines active against Giardia lamblia and Trichomonas vaginalis” (priority 1980, dated 1982)
Converted amounts (≈) assume the structure as drawn. Where two headings read alike, the source gives them in different places.

Key:
Giardia lamblia [1] = experiment: In vitro anti-G. lamblia activity (50% inhibition of growth, viable cell count); type: cell-based; conditions: Giardia duodenalis, 37° C., anaerobic, about 16-24 hrs (Example 1: 24 hours), vs DMSO controls, read-out: Anti-G. lamblia ED50
Procedure: (§1) About 1.0-2.0 ml of a nutrient medium, for example, the modified Diamond's TPS medium at pH 7.05, together with about 10% by volume of heat-inactivated serum and about 1% by volume of antibiotic-antimycotic solution is placed in each well of a multiwell plate. To this mixture, an aliquot of a suspension of G. lamblia cells containing about […] is added. Subsequently, each well is inoculated with a known concentration of one of the active compounds, for example, 1-(3,4-dichlorocinnamylideneamino)-3-(4-cyanobenzylideneamino)guanidine. The multiwell plate containing the individual culture samples is incubated under anaerobic conditions at about 37° C. for about 16-24 hrs. The number of viable cells remaining in each well are then counted, such as with a hemacytometer. The percentage of survival is determined by comparison to controls inoculated with DMSO (dimethylsulfoxide) and the effective concentration (in parts per million) for 50% inhibition of growth (ED50) is determined. It is established that the lower the number of the value of ED50, the higher the activity of the active compound.
In each well of a multiwell plate is placed 1.4 ml of media mix containing Diamond's TPS medium (see Table 2) at pH 7.05, 10% by volume of heat-inactivated fetal bovine serum, and 1% by volume of an antibiotic-antimycotic solution (see Table 3). A suspension of Giardia lamblia is centrifuged at 2,500 xg. for 6 minutes. The cells are resuspended in a small volume of the Diamond's medium, counted, and each well inoculated with approximately 10^6 organisms. A stock solution of 1-(4-chlorocinnamylideneamino)-3-(3,4-dichlorobenzylideneamino)guanidine in dimethylsulfoxide is made at a concentration of 150 μg/ml. The wells are then inoculated with various concentrations of the drug. The plates are incubated for 24 hours at 37° C. in an anaerobic Gas Pak jar. After 24 hours of incubation each well is mixed and counted for viable organisms using a hemacytometer. The percentage of survival is determined by comparing the treated wells to controls treated with dimethylsulfoxide.
Employing substantially the similar procedure as described in Example 1 but substituting for 1-(4-chlorocinnamylideneamino)-3-(3,4-dichlorobenzylideneamino)guanidine used therein other active compounds, there are obtained similar results indicating the anti- G. lamblia activities of the compounds included above in Table 1.

T. vaginalis 30001 = experiment: In vitro anti-T. vaginalis activity (50% inhibition of growth); type: cell-based, Trichomonas vaginalis; conditions: for IC50: Trichomonas vaginalis
Procedure: The activity of these compounds against Giardia lamblia and Trichomonas vaginalis are shown by the following test:
as §1
Employing essentially the same method of Example 1, centrifuged cells of T. vaginalis 30001 are inoculated with 1-(4-chlorocinnamylideneamino)-3-(3,4-dichlorobenzylideneamino)guanidine at 37° C. for 24 hours.
Similarly, previously described compounds (2) to (10) and the pharmaceutically acceptable salts thereof an active anti- T. vaginalis agents as shown in Table 1.

Giardia lamblia [2] = conditions: New York Times, June 10, 1980; cited from earlier work
[3] = cited from earlier work
Trichomonas vaginalis = conditions: has been reported; cited from earlier work
animals = conditions: cited from earlier work
[4] = in vitro, 37° C., 24 hours, Table 1, read-out: Anti-T. vaginalis ED50

Question: Which results are given for `N=C(NN=CC=Cc1ccc(Cl)cc1)NN=Cc1ccc(Cl)c(Cl)c1` [(1), 1-(4-chlorocinnamylideneamino)-3-(3,4-dichlorobenzylideneamino)guanidine]?
Answer: IC50 (Giardia lamblia [1]): 1.1 µg/mL (≈ 2.79 µM); IC50 (T. vaginalis 30001; Example 2, 37° C. for 24 hours, unit inferred, read-out: ED50 value, anti-T. vaginalis): 2.25 µg/mL (≈ 5.7 µM); anti-T. vaginalis activity in words (T. vaginalis 30001; in vitro, method of Example 1/2): effective anti- T. vaginalis agent

Question: Which IC50 (Giardia lamblia [1]) does the source give for `CN(N=Cc1ccc(Cl)cc1)C(=N)NN=CC=Cc1ccc(C(F)(F)F)cc1` [(2), 1-(4-trifluoromethylcinnamylideneamino)-3-(4-chlorobenzylideneamino)-3-methylguanidine] here?
Answer: 0.8 µg/mL (≈ 1.96 µM)

Question: And the IC50 (T. vaginalis 30001; [4])?
Answer: 2.75 µg/mL (≈ 6.74 µM)

Question: Which IC50 (Giardia lamblia [1]) does the source give for `CN(N=Cc1ccc(Cl)cc1)C(=N)NN=CC=Cc1ccc(C#N)cc1` [(3), 1-(4-cyanocinnamylideneamino)-3-(4-chlorobenzylideneamino)-3-methyl-guanidine] here?
Answer: 0.85 µg/mL (≈ 2.33 µM)

Question: What about the IC50 (T. vaginalis 30001; [4]) of the same molecule?
Answer: 3.25 µg/mL (≈ 8.91 µM)

Question: Which results are given for `CN(N=Cc1ccc(Cl)cc1)C(=N)NN=CC=Cc1ccc(Cl)c(Cl)c1` [(4), 1-(3,4-dichlorocinnamylideneamino)-3-(4-chlorobenzylideneamino)-3-methyl-guanidine]?
Answer: IC50 (Giardia lamblia [1]): 0.58 µg/mL (≈ 1.42 µM); IC50 (T. vaginalis 30001; [4]): 2.5 µg/mL (≈ 6.12 µM)

Question: With `CN(N=Cc1ccc(C(F)(F)F)cc1)C(=N)NN=CC=Cc1ccc(C#N)cc1` [(5), 1-(4-cyanocinnamylideneamino)-3-(4-trifluoromethylbenzylideneamino)-3-methyl-guanidine] as the molecule, how does the IC50 (Giardia lamblia [1]) read?
Answer: 1.5 µg/mL (≈ 3.77 µM)

Question: What about the IC50 (T. vaginalis 30001; [4]) of the same molecule?
Answer: 3.25 µg/mL (≈ 8.16 µM)

Question: Which IC50 (Giardia lamblia [1]) does the source give for `CN(N=Cc1ccc(C(F)(F)F)cc1)C(=N)NN=CC=Cc1ccc(Cl)c(Cl)c1` [(6), 1-(3,4-dichlorocinnamylideneamino)-3-(4-trifluoromethylbenzylideneamino)-3-methyl-guanidine] here?
Answer: 0.73 µg/mL (≈ 1.65 µM)

Question: And the IC50 (T. vaginalis 30001; [4])?
Answer: 2.67 µg/mL (≈ 6.04 µM)

Question: With `N#Cc1ccc(C=NNC(=N)NN=CC=Cc2ccc(Cl)c(Cl)c2)cc1` [(7), 1-(3,4-dichlorocinnamylideneamino)-3-(4-cyanobenzylideneamino)guanidine] as the molecule, how does the IC50 (Giardia lamblia [1]) read?
Answer: 0.57 µg/mL (≈ 1.48 µM)

Question: What about the IC50 (T. vaginalis 30001; [4]) of the same molecule?
Answer: 1 µg/mL (≈ 2.6 µM)

Question: For `CN(N=Cc1ccc(Cl)cc1)C(=N)NN=CC=Cc1ccc(Cl)cc1` [(8), 1-(4-chlorocinnamylideneamino)-3-(4-chlorobenzylideneamino)-3-methyl-guanidine], which IC50 (Giardia lamblia [1]) is on record?
Answer: 1.4 µg/mL (≈ 3.74 µM)

Question: And the IC50 (T. vaginalis 30001; [4])?
Answer: 2.67 µg/mL (≈ 7.13 µM)

Question: For `CN(N=Cc1ccc(C(F)(F)F)cc1)C(=N)NN=CC=Cc1ccc(Cl)cc1` [(9), 1-(4-chlorocinnamylideneamino)-3-(4-trifluoromethylbenzylideneamino)-3-methyl-guanidine], which IC50 (Giardia lamblia [1]) is on record?
Answer: 1.3 µg/mL (≈ 3.19 µM)

Question: And the IC50 (T. vaginalis 30001; [4])?
Answer: 2.38 µg/mL (≈ 5.84 µM)

Question: Which IC50 (Giardia lamblia [1]) does the source give for `CN(N=Cc1ccc([N+](=O)[O-])cc1)C(=N)NN=CC=Cc1ccc(C(F)(F)F)cc1` [(10), 1-(4-trifluoromethylcinnamylideneamino)-3-(4-nitrobenzylideneamino)-3-methyl-guanidine] here?
Answer: 1 µg/mL (≈ 2.39 µM)

Question: What about the IC50 (T. vaginalis 30001; [4]) of the same molecule?
Answer: 3.25 µg/mL (≈ 7.77 µM)

Question: With `CCN(CC)CCCC(C)Nc1c2ccc(Cl)cc2nc2ccc(OC)cc12` (stereo not shown) [Atabrine] as the molecule, how does the treatment of giardiasis (Giardia lamblia [2]) read?
Answer: successfully treated

Question: And the adverse side effects ([3]; in vivo)?
Answer: known to cause adverse side effects

Question: With `Cc1ncc([N+](=O)[O-])n1CCO` [Flagyl (metronidazole), metronidazole] as the molecule, how does the IC50 (Giardia lamblia [1]) read?
Answer: 6.2 µg/mL (≈ 36.2 µM)

Question: And the IC50 (T. vaginalis 30001; [4])?
Answer: < 1 µg/mL

Question: And the treatment of giardiasis (Giardia lamblia [2])?
Answer: successfully treated

Question: And the therapy of trichomoniasis (Trichomonas vaginalis)?
Answer: Successful therapy

Question: What about the carcinogenicity (animals) of the same molecule?
Answer: carcinogenic in animals

Question: What about the adverse side effects ([3]; in vivo) of the same molecule?
Answer: known to cause adverse side effects

Question: For `O=C1OCCN1/N=C/c1ccc([N+](=O)[O-])o1` [furazolidone], which treatment of giardiasis (Giardia lamblia [2]) is on record?
Answer: successfully treated

Question: What about the adverse side effects ([3]; New York Times, June 10, 1980) of the same molecule?
Answer: known to cause adverse side effects
